{
  "source": "patent US20030040506A1",
  "about": "(priority 2002, published 2003)",
  "test": "Acid stability (acid-mediated hydrolytic decomposition, simulated stomach conditions)",
  "type": "physicochemical",
  "settings": "pH 1, 25° C.; for Compound left (%): 0.3 mg/mL in dilute hydrochloric acid, HPLC",
  "experimental": "Compounds were tested for their stability towards acid-mediated hydrolytic decomposition employing a test designed to simulate stomach conditions. Each compound was incubated at an initial concentration of 0.3 mg/mL in dilute hydrochloric acid at pH 1 for 24 hours at 25° C. HPLC was run immediately for t=0 and at intervals up to approximately 24 hours. The results for compounds of Example 2, part b, Example 9, and for comparative phosphoramidates of 2′,3′-dideoxy-adenosine (Compound 1093) and 2′,3′-didehydro-2′,3′-dideoxy-adenosine (Compound 1001), described in PCT/GB96/00580, are given in the table below.",
  "data": [
    {"smiles": "COC(=O)C(C)(C)NP(=O)(OC[C@@H]1C=C[C@H](n2cnc3c(NCC4CC4)nc(N)nc32)C1)Oc1ccccc1", "note": "(relative stereo) [Example 9]", "values": [
      {"measurement": "Compound left (%)", "setting": "Time 0 hr", "value": 100, "unit": "%"},
      {"measurement": "Compound left (%)", "setting": "Time 13 hr", "value": 96, "unit": "%"},
      {"measurement": "Compound left (%)", "setting": "Time 24 hr", "value": 94, "unit": "%"},
      {"measurement": "Acid stability in words", "setting": "after 24 hours, dilute hydrochloric acid", "value": "remained intact"}
    ]}
  ]
}
